# Data taken from PubChem BioAssay (NCI).
#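 Dose response: 5 concentrations. Exposure: 48 h. Format: 96-well plates. Endpoint: linear interpolation; highest concentration if not reached. TGI denotes the concentration required for complete inhibition of growth.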
# Experiments:
# Assay in all cases: growth of human tumour cells (NCI), 48 h
# SK-OV-3 ovarian = tested on: SK-OV-3 ovarian
# HOP-18 NSCLC = tested on: HOP-18 NSCLC
# OVCAR-5 ovarian = tested on: OVCAR-5 ovarian
# HT29 colon = tested on: HT29 colon
# SF-539 CNS = tested on: SF-539 CNS
# UO-31 renal = tested on: UO-31 renal
# A498 renal = tested on: A498 renal
# ACHN renal = tested on: ACHN renal
# HOP-92 NSCLC = tested on: HOP-92 NSCLC
# OVCAR-8 ovarian = tested on: OVCAR-8 ovarian
# SF-268 CNS = tested on: SF-268 CNS
# UACC-62 melanoma = tested on: UACC-62 melanoma
# K-562 leukemia = tested on: K-562 leukemia
# HCT-15 colon = tested on: HCT-15 colon
# DMS 114 small cell lung = tested on: DMS 114 small cell lung
# CCRF-CEM leukemia = tested on: CCRF-CEM leukemia
# NCI-H23 lung = tested on: NCI-H23 lung
# SF-295 CNS = tested on: SF-295 CNS
# TK-10 renal = tested on: TK-10 renal
# XF 498 CNS = tested on: XF 498 CNS
# RXF 393 renal = tested on: RXF 393 renal
# SNB-75 CNS = tested on: SNB-75 CNS
# RXF-631 renal = tested on: RXF-631 renal
# KM12 colon = tested on: KM12 colon
# EKVX NSCLC = tested on: EKVX NSCLC
# U251 CNS = tested on: U251 CNS
# MOLT-4 leukemia = tested on: MOLT-4 leukemia
# OVCAR-4 ovarian = tested on: OVCAR-4 ovarian
# KM20L2 colon = tested on: KM20L2 colon
# RPMI-8226 leukemia = tested on: RPMI-8226 leukemia
# DLD-1 colon = tested on: DLD-1 colon
# M19-MEL melanoma = tested on: M19-MEL melanoma
# UACC-257 melanoma = tested on: UACC-257 melanoma
# HCT-116 colon = tested on: HCT-116 colon
# LXFL 529 NSCLC = tested on: LXFL 529 NSCLC
# SK-MEL-5 melanoma = tested on: SK-MEL-5 melanoma
# SW-620 colon = tested on: SW-620 colon
# MALME-3M melanoma = tested on: MALME-3M melanoma
# OVCAR-3 ovarian = tested on: OVCAR-3 ovarian
# HL-60(TB) leukemia = tested on: HL-60(TB) leukemia
# SK-MEL-28 melanoma = tested on: SK-MEL-28 melanoma
# LOX IMVI melanoma = tested on: LOX IMVI melanoma
# A549 NSCLC = tested on: A549 NSCLC
# CAKI-1 renal = tested on: CAKI-1 renal
# SNB-78 CNS = tested on: SNB-78 CNS
# COLO 205 colon = tested on: COLO 205 colon
# 786-0 renal = tested on: 786-0 renal
# HCC-2998 colon = tested on: HCC-2998 colon
# NCI-H522 lung = tested on: NCI-H522 lung
# HOP-62 NSCLC = tested on: HOP-62 NSCLC
# M14 melanoma = tested on: M14 melanoma
# IGROV1 ovarian = tested on: IGROV1 ovarian
# SNB-19 CNS = tested on: SNB-19 CNS
# SK-MEL-2 melanoma = tested on: SK-MEL-2 melanoma
# NCI-H460 lung = tested on: NCI-H460 lung
# DMS 273 small cell lung = tested on: DMS 273 small cell lung
# SN12C renal = tested on: SN12C renal
# SR leukemia = tested on: SR leukemia
# NCI-H226 lung = tested on: NCI-H226 lung
smiles,measurement,setting,value
CC1=C(C(=O)CC(=O)C(=O)Nc2ccc(Cl)cc2C)Sc2ccccc2N1,TGI,SK-OV-3 ovarian,> 100 µM
same,TGI,HOP-18 NSCLC,> 100 µM
same,TGI,OVCAR-5 ovarian,> 100 µM
same,TGI,HT29 colon,> 100 µM
same,TGI,SF-539 CNS,> 100 µM
same,TGI,UO-31 renal,> 100 µM
same,TGI,A498 renal,> 100 µM
same,TGI,ACHN renal,> 100 µM
same,TGI,HOP-92 NSCLC,74.7 µM
same,TGI,OVCAR-8 ovarian,> 100 µM
same,TGI,SF-268 CNS,> 100 µM
same,TGI,UACC-62 melanoma,> 100 µM
same,TGI,K-562 leukemia,> 100 µM
same,TGI,HCT-15 colon,> 100 µM
same,TGI,DMS 114 small cell lung,> 100 µM
same,TGI,CCRF-CEM leukemia,> 100 µM
same,TGI,NCI-H23 lung,> 100 µM
same,TGI,SF-295 CNS,> 100 µM
same,TGI,TK-10 renal,> 100 µM
same,TGI,XF 498 CNS,> 100 µM
same,TGI,RXF 393 renal,> 100 µM
same,TGI,SNB-75 CNS,> 100 µM
same,TGI,RXF-631 renal,> 100 µM
same,TGI,KM12 colon,> 100 µM
same,TGI,EKVX NSCLC,> 100 µM
same,TGI,U251 CNS,> 100 µM
same,TGI,MOLT-4 leukemia,> 77.1 µM
same,TGI,OVCAR-4 ovarian,> 100 µM
same,TGI,KM20L2 colon,> 100 µM
same,TGI,RPMI-8226 leukemia,> 100 µM
same,TGI,DLD-1 colon,> 100 µM
same,TGI,M19-MEL melanoma,> 100 µM
same,TGI,UACC-257 melanoma,> 100 µM
same,TGI,HCT-116 colon,> 100 µM
same,TGI,LXFL 529 NSCLC,> 100 µM
same,TGI,SK-MEL-5 melanoma,> 100 µM
same,TGI,SW-620 colon,> 100 µM
same,TGI,MALME-3M melanoma,> 100 µM
same,TGI,OVCAR-3 ovarian,> 100 µM
same,TGI,HL-60(TB) leukemia,> 100 µM
same,TGI,SK-MEL-28 melanoma,> 100 µM
same,TGI,LOX IMVI melanoma,> 100 µM
same,TGI,A549 NSCLC,> 100 µM
same,TGI,CAKI-1 renal,> 100 µM
same,TGI,SNB-78 CNS,> 100 µM
same,TGI,COLO 205 colon,> 100 µM
same,TGI,786-0 renal,> 100 µM
same,TGI,HCC-2998 colon,> 100 µM
same,TGI,NCI-H522 lung,> 100 µM
same,TGI,HOP-62 NSCLC,> 100 µM
same,TGI,M14 melanoma,> 100 µM
same,TGI,IGROV1 ovarian,> 100 µM
same,TGI,SNB-19 CNS,> 100 µM
same,TGI,SK-MEL-2 melanoma,> 100 µM
same,TGI,NCI-H460 lung,> 100 µM
same,TGI,DMS 273 small cell lung,> 100 µM
same,TGI,SN12C renal,> 100 µM
CSc1cc(-c2cc3ccccc3o2)oc(=O)c1C#N,TGI,HOP-18 NSCLC,> 100 µM
same,TGI,OVCAR-5 ovarian,> 100 µM
same,TGI,HT29 colon,> 100 µM
same,TGI,SF-539 CNS,> 100 µM
same,TGI,UO-31 renal,> 100 µM
same,TGI,SR leukemia,50 µM
same,TGI,A498 renal,> 100 µM
same,TGI,ACHN renal,> 100 µM
same,TGI,HOP-92 NSCLC,2.33 µM
same,TGI,OVCAR-8 ovarian,> 100 µM
same,TGI,SF-268 CNS,> 100 µM
same,TGI,K-562 leukemia,> 100 µM
same,TGI,HCT-15 colon,> 100 µM
same,TGI,DMS 114 small cell lung,> 100 µM
same,TGI,CCRF-CEM leukemia,> 100 µM
same,TGI,NCI-H23 lung,> 100 µM
same,TGI,SF-295 CNS,> 100 µM
same,TGI,TK-10 renal,73.4 µM
same,TGI,XF 498 CNS,> 100 µM
same,TGI,RXF 393 renal,> 100 µM
same,TGI,SNB-75 CNS,> 100 µM
same,TGI,RXF-631 renal,> 100 µM
same,TGI,KM12 colon,> 100 µM
same,TGI,EKVX NSCLC,> 100 µM
same,TGI,U251 CNS,> 100 µM
same,TGI,MOLT-4 leukemia,> 100 µM
same,TGI,OVCAR-4 ovarian,> 100 µM
same,TGI,KM20L2 colon,> 100 µM
same,TGI,RPMI-8226 leukemia,> 100 µM
same,TGI,DLD-1 colon,> 100 µM
same,TGI,UACC-257 melanoma,> 100 µM
same,TGI,HCT-116 colon,> 100 µM
same,TGI,LXFL 529 NSCLC,> 100 µM
same,TGI,SK-MEL-5 melanoma,> 100 µM
same,TGI,SW-620 colon,> 100 µM
same,TGI,MALME-3M melanoma,> 100 µM
same,TGI,HL-60(TB) leukemia,> 100 µM
same,TGI,SK-MEL-28 melanoma,> 100 µM
same,TGI,LOX IMVI melanoma,> 100 µM
same,TGI,A549 NSCLC,> 100 µM
same,TGI,CAKI-1 renal,> 100 µM
same,TGI,SNB-78 CNS,> 100 µM
same,TGI,COLO 205 colon,> 100 µM
same,TGI,NCI-H226 lung,4.31 µM
same,TGI,HCC-2998 colon,> 100 µM
same,TGI,M14 melanoma,> 100 µM
same,TGI,IGROV1 ovarian,> 100 µM
same,TGI,SNB-19 CNS,> 100 µM
same,TGI,SK-MEL-2 melanoma,> 100 µM
same,TGI,NCI-H460 lung,> 100 µM
same,TGI,DMS 273 small cell lung,> 100 µM
same,TGI,SN12C renal,> 100 µM
O=[N+]([O-])c1nccn1COCCO,TGI,SK-OV-3 ovarian,> 100 µM
same,TGI,HOP-18 NSCLC,97.8 µM
same,TGI,OVCAR-5 ovarian,> 100 µM
same,TGI,HT29 colon,> 100 µM
same,TGI,SR leukemia,> 100 µM
same,TGI,A498 renal,> 100 µM
same,TGI,ACHN renal,> 100 µM
same,TGI,HOP-92 NSCLC,> 100 µM
same,TGI,SF-268 CNS,> 100 µM
same,TGI,HCT-15 colon,> 100 µM
same,TGI,DMS 114 small cell lung,> 100 µM
same,TGI,CCRF-CEM leukemia,> 100 µM
same,TGI,NCI-H23 lung,> 100 µM
same,TGI,SF-295 CNS,> 100 µM
same,TGI,TK-10 renal,> 100 µM
same,TGI,XF 498 CNS,> 100 µM
same,TGI,RXF 393 renal,> 100 µM
same,TGI,SNB-75 CNS,> 100 µM
same,TGI,RXF-631 renal,> 100 µM
same,TGI,KM12 colon,> 100 µM
same,TGI,U251 CNS,> 100 µM
same,TGI,MOLT-4 leukemia,> 100 µM
same,TGI,OVCAR-4 ovarian,> 100 µM
same,TGI,KM20L2 colon,> 100 µM
same,TGI,RPMI-8226 leukemia,> 100 µM
same,TGI,DLD-1 colon,> 100 µM
same,TGI,UACC-257 melanoma,> 100 µM
same,TGI,HCT-116 colon,> 100 µM
same,TGI,LXFL 529 NSCLC,> 100 µM
same,TGI,SK-MEL-5 melanoma,> 100 µM
same,TGI,SW-620 colon,> 100 µM
same,TGI,MALME-3M melanoma,> 100 µM
same,TGI,HL-60(TB) leukemia,> 100 µM
same,TGI,SK-MEL-28 melanoma,> 100 µM
same,TGI,LOX IMVI melanoma,> 100 µM
same,TGI,A549 NSCLC,> 100 µM
same,TGI,CAKI-1 renal,> 100 µM
same,TGI,SNB-78 CNS,> 100 µM
same,TGI,COLO 205 colon,> 100 µM
same,TGI,786-0 renal,> 100 µM
same,TGI,NCI-H226 lung,> 100 µM
same,TGI,HCC-2998 colon,> 100 µM
same,TGI,NCI-H522 lung,> 100 µM
same,TGI,HOP-62 NSCLC,> 100 µM
same,TGI,M14 melanoma,> 100 µM
same,TGI,SNB-19 CNS,> 100 µM
same,TGI,SK-MEL-2 melanoma,> 100 µM
same,TGI,NCI-H460 lung,> 100 µM
same,TGI,DMS 273 small cell lung,> 100 µM
same,TGI,SN12C renal,> 100 µM
